Nc1ccnc(=O)[nH]1
solubility (mole fraction) (in DMSO, 293.15 K): 0.00997
solubility (mole fraction) (in DMSO, 298.15 K): 0.0105
solubility (mole fraction) (in DMSO, 303.15 K): 0.0111
solubility (mole fraction) (in DMSO, 308.15 K): 0.012
solubility (mole fraction) (in DMSO, 313.15 K): 0.0129
solubility (mole fraction) (in DMSO, 318.15 K): 0.0136
solubility (mole fraction) (in DMSO, 323.15 K): 0.0145
solubility (mole fraction) (in DMSO, 328.15 K): 0.0155
solubility (mole fraction) (in ethanol, 288.15 K): 0.000339
solubility (mole fraction) (in ethanol, 293.15 K): 0.000348
solubility (mole fraction) (in ethanol, 298.15 K): 0.000372
solubility (mole fraction) (in ethanol, 303.15 K): 0.000423
solubility (mole fraction) (in ethanol, 308.15 K): 0.000451
solubility (mole fraction) (in ethanol, 313.15 K): 0.000497
solubility (mole fraction) (in ethanol, 318.15 K): 0.000523
solubility (mole fraction) (in ethanol, 323.15 K): 0.000609
solubility (mole fraction) (in ethanol, 328.15 K): 0.000692
solubility (mole fraction) (in isobutanol, 288.15 K): 0.000144
solubility (mole fraction) (in isobutanol, 293.15 K): 0.000162
solubility (mole fraction) (in isobutanol, 298.15 K): 0.000175
solubility (mole fraction) (in isobutanol, 303.15 K): 0.0002
solubility (mole fraction) (in isobutanol, 308.15 K): 0.000224
solubility (mole fraction) (in isobutanol, 313.15 K): 0.000268
solubility (mole fraction) (in isobutanol, 318.15 K): 0.000309
solubility (mole fraction) (in isobutanol, 323.15 K): 0.00035
solubility (mole fraction) (in isobutanol, 328.15 K): 0.000394
solubility (mole fraction) (in isopentanol, 288.15 K): 0.000201
solubility (mole fraction) (in isopentanol, 293.15 K): 0.000221
solubility (mole fraction) (in isopentanol, 298.15 K): 0.000253
solubility (mole fraction) (in isopentanol, 303.15 K): 0.000278
solubility (mole fraction) (in isopentanol, 308.15 K): 0.000308
solubility (mole fraction) (in isopentanol, 313.15 K): 0.000344
solubility (mole fraction) (in isopentanol, 318.15 K): 0.000374
solubility (mole fraction) (in isopentanol, 323.15 K): 0.000415
solubility (mole fraction) (in isopentanol, 328.15 K): 0.000483
solubility (mole fraction) (in isopropanol, 288.15 K): 0.000159
solubility (mole fraction) (in isopropanol, 293.15 K): 0.000175
solubility (mole fraction) (in isopropanol, 298.15 K): 0.000187
solubility (mole fraction) (in isopropanol, 303.15 K): 0.000205
solubility (mole fraction) (in isopropanol, 308.15 K): 0.00024
solubility (mole fraction) (in isopropanol, 313.15 K): 0.000283
solubility (mole fraction) (in isopropanol, 318.15 K): 0.000316
solubility (mole fraction) (in isopropanol, 323.15 K): 0.000358
solubility (mole fraction) (in isopropanol, 328.15 K): 0.000412
solubility (mole fraction) (in methanol, 288.15 K): 0.000721
solubility (mole fraction) (in methanol, 293.15 K): 0.000808
solubility (mole fraction) (in methanol, 298.15 K): 0.000897
solubility (mole fraction) (in methanol, 303.15 K): 0.000999
solubility (mole fraction) (in methanol, 308.15 K): 0.00112
solubility (mole fraction) (in methanol, 313.15 K): 0.00125
solubility (mole fraction) (in methanol, 318.15 K): 0.00143
solubility (mole fraction) (in methanol, 323.15 K): 0.00159
solubility (mole fraction) (in methanol, 328.15 K): 0.00177
solubility (mole fraction) (in n-butanol, 288.15 K): 0.000171
solubility (mole fraction) (in n-butanol, 293.15 K): 0.000193
solubility (mole fraction) (in n-butanol, 298.15 K): 0.000221
solubility (mole fraction) (in n-butanol, 303.15 K): 0.000241
solubility (mole fraction) (in n-butanol, 308.15 K): 0.000274
solubility (mole fraction) (in n-butanol, 313.15 K): 0.000301
solubility (mole fraction) (in n-butanol, 318.15 K): 0.000344
solubility (mole fraction) (in n-butanol, 323.15 K): 0.000389
solubility (mole fraction) (in n-butanol, 328.15 K): 0.000439
solubility (mole fraction) (in n-hexanol, 288.15 K): 0.000139
solubility (mole fraction) (in n-hexanol, 293.15 K): 0.000153
solubility (mole fraction) (in n-hexanol, 298.15 K): 0.000168
solubility (mole fraction) (in n-hexanol, 303.15 K): 0.000187
solubility (mole fraction) (in n-hexanol, 308.15 K): 0.000213
solubility (mole fraction) (in n-hexanol, 313.15 K): 0.000251
solubility (mole fraction) (in n-hexanol, 318.15 K): 0.00029
solubility (mole fraction) (in n-hexanol, 323.15 K): 0.000337
solubility (mole fraction) (in n-hexanol, 328.15 K): 0.000378
solubility (mole fraction) (in n-octanol, 288.15 K): 0.000102
solubility (mole fraction) (in n-octanol, 293.15 K): 0.000108
solubility (mole fraction) (in n-octanol, 298.15 K): 0.00012
solubility (mole fraction) (in n-octanol, 303.15 K): 0.000133
solubility (mole fraction) (in n-octanol, 308.15 K): 0.000153
solubility (mole fraction) (in n-octanol, 313.15 K): 0.000188
solubility (mole fraction) (in n-octanol, 318.15 K): 0.00023
solubility (mole fraction) (in n-octanol, 323.15 K): 0.000266
solubility (mole fraction) (in n-octanol, 328.15 K): 0.000304
solubility (mole fraction) (in n-pentanol, 288.15 K): 0.000165
solubility (mole fraction) (in n-pentanol, 293.15 K): 0.000185
solubility (mole fraction) (in n-pentanol, 298.15 K): 0.000197
solubility (mole fraction) (in n-pentanol, 303.15 K): 0.000228
solubility (mole fraction) (in n-pentanol, 308.15 K): 0.000254
solubility (mole fraction) (in n-pentanol, 313.15 K): 0.000293
solubility (mole fraction) (in n-pentanol, 318.15 K): 0.00033
solubility (mole fraction) (in n-pentanol, 323.15 K): 0.000369
solubility (mole fraction) (in n-pentanol, 328.15 K): 0.000425
solubility (mole fraction) (in n-propanol, 288.15 K): 0.000218
solubility (mole fraction) (in n-propanol, 293.15 K): 0.000235
solubility (mole fraction) (in n-propanol, 298.15 K): 0.000273
solubility (mole fraction) (in n-propanol, 303.15 K): 0.000303
solubility (mole fraction) (in n-propanol, 308.15 K): 0.000329
solubility (mole fraction) (in n-propanol, 313.15 K): 0.000373
solubility (mole fraction) (in n-propanol, 318.15 K): 0.000433
solubility (mole fraction) (in n-propanol, 323.15 K): 0.000526
solubility (mole fraction) (in n-propanol, 328.15 K): 0.000588
solubility (mole fraction) (in sec-butanol, 288.15 K): 0.000128
solubility (mole fraction) (in sec-butanol, 293.15 K): 0.000137
solubility (mole fraction) (in sec-butanol, 298.15 K): 0.000149
solubility (mole fraction) (in sec-butanol, 303.15 K): 0.000165
solubility (mole fraction) (in sec-butanol, 308.15 K): 0.000191
solubility (mole fraction) (in sec-butanol, 313.15 K): 0.000234
solubility (mole fraction) (in sec-butanol, 318.15 K): 0.000279
solubility (mole fraction) (in sec-butanol, 323.15 K): 0.000321
solubility (mole fraction) (in sec-butanol, 328.15 K): 0.000367
solubility (mole fraction) (in tert-butanol, 303.15 K): 0.000269
solubility (mole fraction) (in tert-butanol, 308.15 K): 0.00036
solubility (mole fraction) (in tert-butanol, 313.15 K): 0.000461
solubility (mole fraction) (in tert-butanol, 318.15 K): 0.000706
solubility (mole fraction) (in tert-butanol, 323.15 K): 0.000848
solubility (mole fraction) (in tert-butanol, 328.15 K): 0.00118
solubility (mole fraction) (in water, 288.15 K): 0.000768
solubility (mole fraction) (in water, 293.15 K): 0.000899
solubility (mole fraction) (in water, 298.15 K): 0.00112
solubility (mole fraction) (in water, 303.15 K): 0.00145
solubility (mole fraction) (in water, 308.15 K): 0.00176
solubility (mole fraction) (in water, 313.15 K): 0.00215
solubility (mole fraction) (in water, 318.15 K): 0.00261
solubility (mole fraction) (in water, 323.15 K): 0.00337
solubility (mole fraction) (in water, 328.15 K): 0.00397
